Data published in US11382920B2, “Therapeutic effects of Guanabenz treatment in vanishing white matter” (Stichting VUmc, priority 2017, dated 2022).

What was measured:
2b5^ho mice [1] = assay: Nestin cell count in corpus callosum after Guanabenz treatment of VWM mice; assay type: in vivo, mouse; settings: Guanabenz i.p. weekly from 2 to 10 months of age, analysed at 11 months, vs saline, p=0.289, not significant
Protocol: (§3) Tissue sections of 11 WT and 10 2b5^ho (carrying a homozygous Arg191His mutation in the Eif2b5 gene [7]) animals of 2, 5 or 7 months of age were collected after intracardiac perfusion with 4% paraformaldehyde (PFA). The brains were postfixed in 4% PFA for 1-2 days, after which half of the brain was embedded in paraffin and the other half was incubated overnight in 30% sucrose and snapfrozen in optimum cutting temperature compound (Sakura). […] To test the effect of Guanabenz, 11 female 2b5^ho littermates were injected with saline (n=5) or Guanabenz (10 mg/kg; n=6) i.p. every week from 2 months until 10 months of age. Animals were randomly assigned to the Guanabenz or saline group, and single animals were taken as experimental units. At 11 months of age all mice were sacrificed and the brains were used for analysis. The brains of 3 saline- and 4 Guanabenz-injected animals were perfused as described and used for immunostaining and in situ hybridization. […]
(§4) Mouse tissue was processed for immunostaining as previously described [7]. […] Stainings were analyzed with a LeicaDM6000B microscope (Leica Microsystems). […]
Astrocytes double-positive for nestin and GFAP were counted in the splenium and rostrum of the corpus callosum, on 100× magnification pictures. Total cell number was determined by counting the DAPI-positive nuclei. For each animal, at least 3 slices were stained and counted. […]

2b5^ho mice [2] = assay: Analysis of Bergmann glia translocation (S100ß/GFAP staining) after Guanabenz treatment; assay type: in vivo, mouse
Protocol: Tissue sections of 11 WT and 10 2b5^ho (carrying a homozygous Arg191His mutation in the Eif2b5 gene [7]) animals of 2, 5 or 7 months of age were collected after intracardiac perfusion with 4% paraformaldehyde (PFA). The brains were postfixed in 4% PFA for 1-2 days, after which half of the brain was embedded in paraffin and the other half was incubated overnight in 30% sucrose and snapfrozen in optimum cutting temperature compound (Sakura). […] To test the effect of Guanabenz, 11 female 2b5^ho littermates were injected with saline (n=5) or Guanabenz (10 mg/kg; n=6) i.p. every week from 2 months until 10 months of age. Animals were randomly assigned to the Guanabenz or saline group, and single animals were taken as experimental units. At 11 months of age all mice were sacrificed and the brains were used for analysis. […]
as §4
Bergmann glia pathology was analyzed in S100ß-stained sections. […] All the S100-positive cell bodies inside this band were counted and considered correctly localized. The S100ß-positive cell bodies located outside the band in the molecular layer were counted and considered as translocated Bergmann glia. The amount of translocated cell bodies was expressed as a ratio to the total number of S100ß-positive cell bodies counted.

2b5^ho mice [3] = assay: In situ hybridization for Plp-expressing cells after Guanabenz treatment; assay type: in vivo, mouse; settings: Guanabenz i.p. weekly 2-10 months, forebrain (corpus callosum) and cerebellum, vs saline
Protocol: as §3
In situ hybridization targeting proteolipid protein (Plp) mRNA was performed on PFA-fixed snapfrozen tissue as previously described [7, 25]. […] The number of Plp-positive cells was analyzed in the rostrum and splenium of the corpus callosum, and in the white matter of the cerebellum. For each area 3 different pictures were taken with a 100× objective lens and cells were counted in a 100×200 μm square.

2b5^ho mice [4] = assay: Western blot for myelin proteins MBP and MOG after Guanabenz treatment; assay type: in vivo, mouse; settings: Guanabenz vs saline, n=2
Protocol: To test the effect of Guanabenz, 11 female 2b5^ho littermates were injected with saline (n=5) or Guanabenz (10 mg/kg; n=6) i.p. every week from 2 months until 10 months of age. Animals were randomly assigned to the Guanabenz or saline group, and single animals were taken as experimental units. At 11 months of age all mice were sacrificed and the brains were used for analysis. The brains of 3 saline- and 4 Guanabenz-injected animals were perfused as described and used for immunostaining and in situ hybridization. The brains of 2 saline- and 2 Guanabenz-injected animals were snapfrozen in liquid nitrogen and used for western blot analysis. No animals were excluded from any analysis.
Half of the forebrain and the whole cerebellum of 2 saline- and 2 Guanabenz-treated animals were separately used for western blot analysis. Forebrains were lysed in lysis buffer (50 mM Hepes, 150 mM NaCl, 1 mM EDTA, 2.5 mM ethylene glycol-bis(β-aminoethyl-ether)-N,N,N′,N′-tetraacetic acid, 0.1% Triton-X100, 10% glycerol, 1 mM dithiothreitol) supplemented with protease inhibitor cocktail (ThermoFisher Scientific) using a dounce tissue grinder (Sigma-Aldrich). […] Supernatants were collected and protein concentrations were measured with a Bradford assay. […] Secondary antibodies were raised against mouse or rabbit and conjugated with horseradish peroxidase. Blots were developed with SuperSignal™ West Femto Maximum Sensitivity Substrate (ThermoFisher Scientific) and measured in an Odyssey® Fc Imaging System (LI-COR Inc). Intensity of bands was quantified with ImageJ software and corrected for total amount of protein.

ATF4 expression = assay: Stress-sensitive ATF4 luciferase reporter transfection assay (pNL1.1-mATF4) in U373 cells; assay type: cell-based, human; settings: 15 μM compound added with 3 nM thapsigargin for 16 hours
Protocol: FIG. 9. […] ATF4 expression was assessed with a luciferase reporter construct under regulation of the murine Atf4 promoter and 5′ non-coding region. Cells were transfected as described. The ISR was induced by administration of 3 nM thapsigargin (TG) to the cell culture medium. […] Guanfacin (Gf), an a2 adrenergic receptor agonist without reported GADD34 modulating activity, was included in parallel as negative control. […] Statistical analyses were performed for individual compounds with a paired t-test (*, p<0.05, **, p<0.01).
The a2 adrenergic receptor agonist Guanabenz (Gb) has been reported to also target GADD34 and thereby impact on a negative feedback loop of the ISR [16]. GADD34 promotes dephosphorylation of eIF2P. Gb is thought to inhibit GADD34, it is thereby though to increase and prolong eIF2a phosphorylation and consequently increases production of ATF4 and its regulated transcriptome. We tested the effect of Gb on ATF4 production in U373 cell lines using a stress-sensitive transfection assay. Transfections were performed with the pNL1.1-mATF4 reporter construct, in which expression of the reporter gene is controlled by ISR-responsive sequences. Expression from the reporter construct was measured 2 days after transfection with a commercially available chemiluminescent assay and can be directly interpreted as a measure for ATF4 expression.
ATF4 expression was investigated in the absence or presence of ISR activation. […] Gb was added together with thapsigargin to the culture medium to test the effect of Gb on ATF4 expression. […] The eIF2B-enhancing compound ISRIB was included as positive control for ATF4-regulation.

eIF2a phosphorylation = eIF2a phosphorylation in brain tissue (Western blot) after one Gb injection; assay type: in vivo, mouse; settings: wt and 2b5ho mice, one dose 10 mg/kg i.p., vs saline
Protocol: (§1) FIG. 10. […] Statistical analysis was performed with two-way ANOVA (*, p<0.05, **, p<0.01, ***, p<0.001).
(§2) As (unpublished) part of this study, we investigated the effect of Gb on the expression of ATF4 and its regulated transcriptome in mice. […] In short, we injected one dose of 10 mg/kg Gb intraperitoneally into four wildtype (wt) and four 2b5ho mice. Saline-injected wt and 2b5ho mice were used as negative controls for measuring Gb effects on ISR markers. […] Organs were removed, snap frozen in liquid nitrogen and stored at −80° C. Tissue samples for RNA and protein analyses were prepared as described. In postmortem brain tissue we measured levels of phosphorylated eIF2a with Western blot and levels of mRNAs encoding ATF4 and ATF4-regulated targets CHOP and TRIB3 with qPCR.

[5] = tested on: mRNAs encoding ATF4 and ATF4-regulated targets CHOP and TRIB3; assay: ISR marker mRNA levels in brain tissue (qPCR) after one Gb injection; assay type: in vivo, mouse; settings: one dose 10 mg/kg i.p., vs saline
Protocol: as §1, §2

[6] = in vivo; cited from earlier work

SMILES	average decrease of number of nestin-positive cells in the corpus callosum (2b5^ho mice [1])	GFAP expression and Bergmann glia morphology (2b5^ho mice [2]; Guanabenz i.p. weekly 2-10 months, cerebellum)	decrease of number of translocated Bergmann glia cell bodies (2b5^ho mice [2]; Guanabenz i.p. weekly from 2 to 10 months of age, analysed at 11 months, vs saline, p=0.032, reached numbers of untreated WT)	number of Plp-expressing cells (2b5^ho mice [3])	amount of MBP protein, cerebellum (2b5^ho mice [4])	amount of MOG protein, cerebellum (2b5^ho mice [4])	amount of MOG protein, forebrain (2b5^ho mice [4])	ATF4 expression under stress (ATF4 expression)	levels of eIF2a phosphorylation in brain tissue, 4 hours after injection (eIF2a phosphorylation)	levels of eIF2a phosphorylation in brain tissue, 24 hours after injection (eIF2a phosphorylation)	Atf4 mRNA levels in brain tissue, 2b5ho mice ([5]; 4 and 24 hours)	Ddit3 mRNA expression in brain tissue, 2b5ho mice ([5]; 4 and 24 hours)	Trib3 mRNA expression in brain tissue, 2b5ho mice ([5]; 4 and 24 hours, not significant at 4 hours)	Atf4 mRNA expression level in brain tissue, wt mice ([5]; n=2)	half-life in blood/tissue [6]
NC(N)=N/N=C/c1c(Cl)cccc1Cl [Guanabenz, guanabenz]	27%	decreased GFAP expression and a normalization of Bergmann glia morphology	30%	slightly increased in the forebrain and cerebellum, though not significantly	increased	increased	increased	increased	lower than in saline-injected animals	normalized	transient decrease	reduced at both time points	reduced at both time points	unaffected	approximately 6 hours
N=C(N)NC(=O)Cc1c(Cl)cccc1Cl [Guanfacine, guanfacine]								small, variable and not statistically significant							
O=C(COc1ccc(Cl)cc1)NC1CCC(NC(=O)COc2ccc(Cl)cc2)CC1 (centres unmarked) [ISRIB]								reduced							
